The values that follow come from article PMC10683014, “Amino Acids as Chelating Ligands for Platinum: Enhanced Stability in an Aqueous Environment Promoted by Biocompatible Molecules” (Journal of Medicinal Chemistry, 2023).

A short description of series [1]: Stability in aqueous solution followed by capillary electrophoresis. To be noted: water; CE, samples at 37 °C. Format: physicochemical. As for the experimental part:
The stability of complexes 1–4 was tested in an aqueous solution, to investigate how the different ways of amino acid coordination impacts aqueous degradation (see Table 4). The stability of complex 5 was previously measured in a 50% methanolic solution.[4]
(§1) A solution of sodium tetraborate (final borate concentration of 50 mM) and sodium dodecyl sulfate (100 mM) was used as a background electrolyte (BGE). The pH of the BGE was adjusted to 9.3 by titration with 1 M NaOH. Every new capillary was rinsed with 1 M NaOH (45 min), water (45 min), and BGE (45 min) before the first use. The capillary was kept on a constant temperature of 25 °C, whereas the sample carousel was temperature-controlled at 37 °C. Sample injection was performed in hydrodynamic mode, applying a pressure of 50 mbar for 2 s on the inlet vial. The separation voltage was set at +20 kV. If not stated differently, a wavelength of 195 nm was employed for the DAD detector. The analytic window was evaluated by using dodecaphenone as a micellar marker and methanol (HPLC grade) as an electroosmotic flow (EOF) marker. The run time required for the analysis was estimated to be 25 min. The capillary was flushed before every run with 0.1 M NaOH (3 min), water (3 min), and BGE (5 min). Every value is calculated from at least three independent measurements. The half-lives were presented as the mean ± standard deviation. All of the samples, buffers, and washing solutions were membrane-filtered (0.22 μm pore size). All samples employed for stability experiments were prepared using benzoic acid as an internal standard (IS).

Series [2] is described as follows: Stability in concentrated trimethylglycine (TMG) aqueous solution followed by capillary electrophoresis. Format: physicochemical. Particulars: dissolved in 50% w/v TMG, diluted to final TMG 25%; CE at 230 nm.
From the text: Kadokawa et al.[35] reported that a highly concentrated solution of trimethyl glycine (TMG, also known as betaine) is able to improve the solubility of cisplatin in water without affecting the pharmacological proprieties of this drug. The mechanism behind this effect seems to lie in the hydrogen bond acceptor property of the carboxylate of TMG, which establishes hydrogen bonds with the amino groups of cisplatin. Betaine is a nontoxic compound and is highly soluble in water. On the basis of this study, we decided to test the solubility of 3 in a highly concentrated (50% w/v) TMG aqueous solution. The platinum compound was soluble enough to allow investigations with the established protocol for capillary electrophoresis. TMG has a strong absorption at low wavelengths, and therefore, a wavelength of 230 nm was chosen instead of 195 nm for recording the electropherograms with TMG.
as §1

Series [3] relates to MCF-7 breast cancer cell line. As to the kind of experiment: MTT metabolic activity (cytotoxicity) assay, MCF-7. Format: cell-based. Particulars: 72 h incubation. Here is the method: (§2) In order to determine the antitumor activity of the platinum complexes, in vitro cytotoxicity tests were performed. Compounds 1–4 were tested with cisplatin as a reference on the breast cancer cell line MCF-7 and the colon carcinoma cell line HT-29. Complexes 1, 4, and 5, as well as the ligand (but-3-en-1-yl 2-acetoxybenzoate, 6) were additionally evaluated on MDA-MB-231 cells and A2780cis cells, also using cisplatin as a reference. The metabolic activity as an indicator of cytotoxicity was determined by a classical 3-(4,5-dimethylthiazol-2-yl)-2,5-diphenyltetrazoliumbromid (MTT) assay.
(§3) The cell lines A2780cis and MDA-MB-231 were cultivated in RPMI 1640 without phenol red (PAN Biotech, Aidenbach, Germany), supplemented with L-glutamine (2 mM), 100 μg/mL penicillin, 100 μg/mL streptomycin, and FCS (10%) (all from Invitrogen Corporation, Gibco, Paisley, Scotland) at 37 °C in a 5% CO2/95% air atmosphere, and passaged twice per week. To maintain resistance, A2780cis cells were incubated every second week with cisplatin (1 μM). The cell lines MCF-7 and HT-29 were grown in DMEM without phenol red (PAN Biotech, Aidenbach, Germany), containing L-glutamine, 100 μg/mL penicillin, 100 μg/mL streptomycin, sodium pyruvate ([…]) (PAN Biotech), and FCS (10%) under the same conditions as the other cell lines.
(§4) The exponentially growing cell lines were seeded at a density of 2000 cells/well for MCF-7 cells, 4000 cells/well for HT-29 cells and MDA-MB-231 cells, and 8000 cells/well for A2780cis cells, respectively, into clear flat-bottom 96-well plates in triplicates. Following 24 h of incubation for adherence at 37 °C in a humidified atmosphere (5% CO2/95% air), the compounds were added to reach the desired concentrations between 10 and 100 μM, respectively. All stock solutions were prepared in dimethylformamide at a concentration of 100 mM and were then diluted with the respective cell-culture medium to the appropriate concentrations. After another 72 h of incubation, the cellular metabolic activity was measured by employing a MTT assay. Hereby, the yellow tetrazolium salt is converted to a purple formazan salt by the functioning mitochondria. These purple crystals are then dissolved in DMSO and can be quantified via absorption measurements at 570 and 420 nm. The optical density of the particular medium was subtracted in order to exclude the unspecific staining caused by the FCS-containing medium. The values were calculated with Excel 2019 (Microsoft, Redmond, WA, USA) using nonlinear regression and the decal logarithm of the inhibitor versus variable slope equation, while the top constraint was set to 100%.

The subject of series [4] is HT-29 colon carcinoma cell line. As to the kind of experiment: MTT metabolic activity (cytotoxicity) assay, HT-29. Format: cell-based. Particulars: 72 h incubation. Here is the method:
as §2, §3, §4

Series [5] can be described thus: Lipophilicity estimate from MEKC experiments (buffer/micelle partition). Format: physicochemical. Particulars: three independent experiments (one for 5 and 6). As for the experimental part:
The lipophilicity of the tested compounds was estimated on the basis of MEKC experiments similar to Herbert and Dorsey[37] (see Table 7). The values estimated in this way were compared with theoretical values obtained from two different methods: for platinum complexes, a previously established method[38] was used, while for the organic ligand, the Osiris Property Explorer[39] was employed.
as §1

The next series deals with T1, human recombinant COX-1 (Homo sapiens, UniProt P23219).
T1 construct: purchased Cayman Chemicals
As to the kind of experiment: COX-1 inhibition, enzyme immunoassay (COX Inhibitor Screening Assay). Format: biochemical. Particulars: 2 min incubation. Here is the method: The incubation time of the compounds with the respective isoenzymes was exactly 2 min. The results are presented as the mean ± SD of three independent experiments with two replicates of each experiment.

The next series deals with T2, human recombinant COX-2 (Homo sapiens, UniProt P35354).
T2 construct: purchased Cayman Chemicals
T2 sequence (P35354 18-604): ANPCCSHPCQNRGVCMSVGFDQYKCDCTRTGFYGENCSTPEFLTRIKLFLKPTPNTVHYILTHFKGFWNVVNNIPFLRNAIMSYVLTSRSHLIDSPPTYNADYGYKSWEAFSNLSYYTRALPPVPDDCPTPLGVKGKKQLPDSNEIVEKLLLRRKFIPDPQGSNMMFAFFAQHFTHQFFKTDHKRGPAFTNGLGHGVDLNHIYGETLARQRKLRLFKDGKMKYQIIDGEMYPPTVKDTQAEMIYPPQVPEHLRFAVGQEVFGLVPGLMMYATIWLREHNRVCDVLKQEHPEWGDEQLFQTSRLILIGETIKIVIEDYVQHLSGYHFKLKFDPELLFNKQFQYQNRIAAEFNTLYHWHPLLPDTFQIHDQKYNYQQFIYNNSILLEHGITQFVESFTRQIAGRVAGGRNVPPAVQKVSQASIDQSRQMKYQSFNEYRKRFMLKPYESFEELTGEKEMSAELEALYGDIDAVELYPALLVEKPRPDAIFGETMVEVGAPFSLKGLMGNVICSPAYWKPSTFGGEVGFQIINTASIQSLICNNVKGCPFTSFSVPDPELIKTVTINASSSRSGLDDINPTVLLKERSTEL
As to the kind of experiment: COX-2 inhibition, enzyme immunoassay (COX Inhibitor Screening Assay). Format: biochemical. To be noted: 2 min incubation. Here is the method:
Metal complexes containing an ASA moiety have been reported as inhibitors for COX-1/-2 previously.[4],[14],[40]−[44] […] Hereby, the isolated enzymes were treated with final concentrations of 10 and 25 μM of substances 1, 4, 5, and 6.
Inhibition of the isolated human recombinant COX-1 and COX-2 isoenzymes by the platinum complexes (10 and 25 μM) was evaluated using an enzyme immunoassay (EIA) (COX Inhibitor Screening Assay, Cayman Chemicals, Ann Arbor, Mi, USA) following the manufacturer’s protocol. The incubation time of the compounds with the respective isoenzymes was exactly 2 min. The results are presented as the mean ± SD of three independent experiments with two replicates of each experiment. The untreated control was set at 0% inhibition of the COX activity.

The conditions of series [6]: cited from earlier work.
The test system of series [7] is MDA-MB-231 breast cancer cell line. Nature of the series: MTT metabolic activity (cytotoxicity) assay, MDA-MB-231. Format: cell-based. Particulars: for IC50: MTT, 72 h incubation. Here is the method:
as §2, §3, §4

Series [8] has as its system A2780cis ovarian carcinoma cell line (cisplatin-resistant). Nature of the series: MTT metabolic activity (cytotoxicity) assay, A2780cis. Format: cell-based. Particulars: for IC50: MTT, 72 h incubation. As for the experimental part:
as §2, §3, §4

Setting [9] is: 25 μM, without compounds set at 100%.

T1 sequence (P23219 24-599): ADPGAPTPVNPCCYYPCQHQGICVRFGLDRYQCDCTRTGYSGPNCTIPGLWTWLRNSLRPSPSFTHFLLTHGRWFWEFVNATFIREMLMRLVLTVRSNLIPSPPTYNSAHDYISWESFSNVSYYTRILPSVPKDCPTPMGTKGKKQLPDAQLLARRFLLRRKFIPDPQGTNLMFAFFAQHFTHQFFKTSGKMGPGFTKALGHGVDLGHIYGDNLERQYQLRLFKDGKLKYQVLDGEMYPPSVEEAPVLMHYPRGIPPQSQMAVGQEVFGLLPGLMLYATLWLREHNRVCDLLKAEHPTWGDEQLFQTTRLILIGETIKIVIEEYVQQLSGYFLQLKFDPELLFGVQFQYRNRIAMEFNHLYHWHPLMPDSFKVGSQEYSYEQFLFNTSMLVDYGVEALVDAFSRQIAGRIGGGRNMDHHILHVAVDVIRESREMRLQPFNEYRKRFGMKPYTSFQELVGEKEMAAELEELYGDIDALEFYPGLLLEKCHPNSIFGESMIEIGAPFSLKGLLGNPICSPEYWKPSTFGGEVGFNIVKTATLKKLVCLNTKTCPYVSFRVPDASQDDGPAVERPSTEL

As for `C=C.NCCC(=O)[O][Pt][Cl]` [2b, (Ethylene,O-trans)(β-alaninato-N,O)chlorido(η^2-ethene)platinate(II)], the “half-life time (τ1/2) in water” value in [1] is recorded as 1.7 ± 0.2 h. Also, the “half-life time (τ1/2) in TMG solution” value in [2] came out at 0.77 ± 0.08 h. For the same compound, the half-maximal inhibitory concentration (IC50) in series [3] and in series [4] was more than 100 µM in each case. Further, the “coefficient of partition between buffer and micelles (k′), average” value in series [5] is 3.099 ± 0.149.

Consider `CC(=O)Oc1ccccc1C(=O)O` [ASA, acetylsalicylic acid, reference compound], for which the inhibition at 10 µM at human recombinant COX-1 (10 μM) came to 17.3%; at human recombinant COX-2 (10 μM) it was 9.33%.

In the case of `C=C.[Cl-].[Cl-].[Cl-].[K+].[Pt+2]` [ZS, potassium trichloro(ethylene)platinate(II), reference compound], the “% Inhibition COX-1” value on human recombinant COX-1 (10 μM) came to 90.83%. Also, the “% Inhibition COX-2” value at human recombinant COX-2 (10 μM) is 8.30%. Further, in series [6] (water), the “time to quantitative conversion to the trans-aquo complex after dissolution in water” value is given as not above 2 min.

For the compound `N.N.[Cl][Pt][Cl]` [cisplatin, reference compound], the IC50 is 29 ± 4.28 µM in series [3], 13.9 ± 5.16 µM in series [4], 13.3 ± 0.87 µM in series [7] and 14.8 ± 1.23 µM in series [8]. Besides, in series [7] (setting [9]), the “metabolic activity (residual) on MDA-MB-231” value was determined as 8.71%. Also, in series [8] (setting [9]), the “metabolic activity (residual) on A2780cis” value is given as 4.71%.

Regarding `C=C.NC(Cc1c[nH]cn1)C(=O)O.[Cl][Pt]` [compound 3, (L-Histidinato-N,N)chlorido(η^2-ethene)platinate(II)], in [2], the “half-life time (τ1/2) in TMG solution” value is reported as 12.0 ± 3.0 h. Besides, the IC50 in series [3] and in series [4] was more than 100 µM throughout. Moreover, in series [5], the “coefficient of partition between buffer and micelles (k′), average” value is 2.392 ± 0.185.

In the case of `C=CCCOC(=O)c1ccccc1OC(C)=O.[Cl][Pt-]([Cl])[Cl].[K+]` [compound 5, potassium {trichlorido[η^2-(but-3-en-1-yl)-2-acetoxybenzoate]platinate(II)}], the concentration for half-maximal inhibition (IC50) in series [7] and in series [8] was more than 50 µM in each case. Besides, the “% Inhibition COX-1” value on human recombinant COX-1 (10 μM) was 67.84 ± 10.57%; on human recombinant COX-1 (25 μM) it was 80.49 ± 11.10%. The results for the “% Inhibition COX-2” value at human recombinant COX-2 (10 μM) and at human recombinant COX-2 (25 μM) were 39.56% and 63.10 ± 8.07%, respectively. Besides, the “half-life in 50% methanolic solution” value in [6] (50% methanolic solution, previously measured) is 69.6 ± 3.0 h.

Regarding `C=CCCOC(=O)c1ccccc1OC(C)=O` [compound 6, but-3-en-1-yl 2-acetoxybenzoate], the IC50 in series [7] (Homo sapiens, MDA-MB-231) was more than 50 µM; in [8] (A2780cis) it was more than 50 µM. Besides, the inhibition at 10 µM on human recombinant COX-1 (10 μM) is 23.7 ± 9.86%; on human recombinant COX-2 (10 μM) it was 15.7 ± 14.8%. The results for the inhibition at 25 µM on human recombinant COX-1 (25 μM) and on human recombinant COX-2 (25 μM) were 16.4 ± 8.64% and 16.9 ± 17.2%, respectively.

The IC50 is the concentration needed to halve the response being measured. Higher therefore signals weaker potency. In general, inhibition refers to the drop in the measured response relative to a control, in per cent.
